Measured values as given in ChEMBL document CHEMBL3227948, “Preparation and antidiabetic activity of some sulfonylurea derivatives of 3,5-disubstituted pyrazoles” (1979).

The compounds below were run on Mus musculus (assay: Hypoglycemic activity in alloxan-induced diabetic albino mouse assessed as decrease in blood glucose level at 1 mmol/kg, po administered 6 days after alloxan injection measured after 2 to 4 hrs by automated glucose oxidase method relative to control).
Format: functional

Compound	inhibition in vivo at 1000 µmol/kg
CCN1C(=O)CN(S(=O)(=O)c2ccc(-n3nc(C)cc3C)cc2)C1=S	< 1%
CCCN1C(=O)CN(S(=O)(=O)c2ccc(-n3nc(C)cc3C)cc2)C1=S	< 1%
CCCCN1C(=O)CN(S(=O)(=O)c2ccc(-n3nc(C)cc3C)cc2)C1=S	1%
Cc1cc(C)n(-c2ccc(S(=O)(=O)N3CC(=O)N(C4CCCCC4)C3=S)cc2)n1	2%
Cc1cc(C)n(-c2ccc(S(=O)(=O)N3CC(=O)N(Cc4ccccc4)C3=S)cc2)n1	1%
Cc1cc(C)n(-c2ccc(S(=O)(=O)N3CC(=O)N(c4ccccc4)C3=S)cc2)n1	8%
CCN1C(=O)CN(S(=O)(=O)c2ccc(-n3nc(C(=O)O)cc3C)cc2)C1=S	< 1%
C=CCN1C(=O)CN(S(=O)(=O)c2ccc(-n3nc(C(=O)O)cc3C)cc2)C1=S	< 1%
CCCN1C(=O)CN(S(=O)(=O)c2ccc(-n3nc(C(=O)O)cc3C)cc2)C1=S	1%
CCCCN1C(=O)CN(S(=O)(=O)c2ccc(-n3nc(C(=O)O)cc3C)cc2)C1=S	1%
Cc1cc(C(=O)O)nn1-c1ccc(S(=O)(=O)N2CC(=O)N(C3CCCCC3)C2=S)cc1	1%
Cc1cc(C(=O)O)nn1-c1ccc(S(=O)(=O)N2CC(=O)N(Cc3ccccc3)C2=S)cc1	< 1%
C=CCN1C(=O)CN(S(=O)(=O)c2ccc(-n3nc(C)cc3C)cc2)C1=S	4%
N=C(N)NC(=N)NCCc1ccccc1 [PHENFORMIN]	21%

What follows are compounds tested on Mus musculus (assay: Hypoglycemic activity in alloxan-induced diabetic albino mouse assessed as decrease in blood glucose level at 0.4 mmol/kg, po administered 6 days after alloxan injection measured after 2 to 4 hrs by automated glucose oxidase method relative to control).
Format: functional

Compound	inhibition in vivo at 400 µmol/kg
CCNC(=O)NS(=O)(=O)c1ccc(-n2nc(C)cc2C)cc1	< 1%
CCCNC(=O)NS(=O)(=O)c1ccc(-n2nc(C)cc2C)cc1	< 1%
CCCCNC(=O)NS(=O)(=O)c1ccc(-n2nc(C)cc2C)cc1	2%
Cc1cc(C)n(-c2ccc(S(=O)(=O)NC(=O)NC3CCCCC3)cc2)n1	10%
Cc1cc(C)n(-c2ccc(S(=O)(=O)NC(=O)NCc3ccccc3)cc2)n1	< 1%
Cc1cc(C)n(-c2ccc(S(=O)(=O)NC(=O)NNC(=N)N)cc2)n1	3%
CCNC(=O)NS(=O)(=O)c1ccc(-n2nc(C(=O)O)cc2C)cc1	0%
CCCNC(=O)NS(=O)(=O)c1ccc(-n2nc(C(=O)O)cc2C)cc1	1%
CCCCNC(=O)NS(=O)(=O)c1ccc(-n2nc(C(=O)O)cc2C)cc1	2%
Cc1cc(C(=O)O)nn1-c1ccc(S(=O)(=O)NC(=O)NC2CCCCC2)cc1	1%
Cc1cc(C(=O)O)nn1-c1ccc(S(=O)(=O)NC(=O)NCc2ccccc2)cc1	0%
CCNC(=S)NS(=O)(=O)c1ccc(-n2nc(C)cc2C)cc1	0%
C=CCNC(=S)NS(=O)(=O)c1ccc(-n2nc(C)cc2C)cc1	-1%
CCCNC(=S)NS(=O)(=O)c1ccc(-n2nc(C)cc2C)cc1	< 1%
CCCCNC(=S)NS(=O)(=O)c1ccc(-n2nc(C)cc2C)cc1	1%
Cc1cc(C)n(-c2ccc(S(=O)(=O)NC(=S)NC3CCCCC3)cc2)n1	< 2%
Cc1cc(C)n(-c2ccc(S(=O)(=O)NC(=S)NCc3ccccc3)cc2)n1	0%
Cc1cc(C)n(-c2ccc(S(=O)(=O)NC(=S)Nc3ccccc3)cc2)n1	-3%
CCNC(=S)NS(=O)(=O)c1ccc(-n2nc(C(=O)O)cc2C)cc1	-2%
C=CCNC(=S)NS(=O)(=O)c1ccc(-n2nc(C(=O)O)cc2C)cc1	-6%
CCCNC(=S)NS(=O)(=O)c1ccc(-n2nc(C(=O)O)cc2C)cc1	< 1%
CCCCNC(=S)NS(=O)(=O)c1ccc(-n2nc(C(=O)O)cc2C)cc1	< 1%
Cc1cc(C(=O)O)nn1-c1ccc(S(=O)(=O)NC(=S)NC2CCCCC2)cc1	1%
Cc1cc(C(=O)O)nn1-c1ccc(S(=O)(=O)NC(=S)NCc2ccccc2)cc1	< 2%
Cc1cc(C(=O)O)nn1-c1ccc(S(=O)(=O)NC(=S)Nc2ccccc2)cc1	0%

The compounds below were run on Mus musculus (assay: Hypoglycemic activity in alloxan-induced diabetic albino mouse assessed as decrease in blood glucose level at 1 mmol/kg, po administered 6 days after alloxan injection measured after 1 to 3 hrs by automated glucose oxidase method relative to control).
Format: functional

Compound	inhibition in vivo at 1000 µmol/kg
Cc1cc(C)n(-c2ccc(S(=O)(=O)N3CCC(=O)N(Cc4ccccc4)C3=S)cc2)n1	18%
CCN1C(=O)CCN(S(=O)(=O)c2ccc(-n3nc(C)cc3C)cc2)C1=S	4%
CCCN1C(=O)CCN(S(=O)(=O)c2ccc(-n3nc(C)cc3C)cc2)C1=S	1%
CCCCN1C(=O)CCN(S(=O)(=O)c2ccc(-n3nc(C)cc3C)cc2)C1=S	1%
Cc1cc(C)n(-c2ccc(S(=O)(=O)N3CCC(=O)N(C4CCCCC4)C3=S)cc2)n1	4%
Cc1cc(C)n(-c2ccc(S(=O)(=O)N3CCC(=O)N(c4ccccc4)C3=S)cc2)n1	< 1%
CCN1C(=O)CCN(S(=O)(=O)c2ccc(-n3nc(C(=O)O)cc3C)cc2)C1=S	1%
C=CCN1C(=O)CCN(S(=O)(=O)c2ccc(-n3nc(C(=O)O)cc3C)cc2)C1=S	0%
CCCN1C(=O)CCN(S(=O)(=O)c2ccc(-n3nc(C(=O)O)cc3C)cc2)C1=S	< 1%
CCCCN1C(=O)CCN(S(=O)(=O)c2ccc(-n3nc(C(=O)O)cc3C)cc2)C1=S	2%
Cc1cc(C(=O)O)nn1-c1ccc(S(=O)(=O)N2CCC(=O)N(C3CCCCC3)C2=S)cc1	2%
Cc1cc(C(=O)O)nn1-c1ccc(S(=O)(=O)N2CCC(=O)N(Cc3ccccc3)C2=S)cc1	16%
Cc1cc(C(=O)O)nn1-c1ccc(S(=O)(=O)N2CCC(=O)N(c3ccccc3)C2=S)cc1	1%
N=C(N)NC(=N)NCCc1ccccc1 [PHENFORMIN]	21%
